Reference: ChEMBL document CHEMBL5126678, “A New Naphthopyran Derivative Combines c-Myb Inhibition, Microtubule-Targeting Effects, and Antiangiogenic Properties” (ACS Med Chem Lett, 2022)
Blank lines part the entries; values can stand above or below the molecule they belong to. Activity calls are given as the source filed them. The calls are words filed in the database; no cut-off is given here.

Tests used:
[1] = biological target: Transcriptional activator Myb (Homo sapiens, UniProt P10242); assay: Inhibition of c-Myb (unknown origin) expressed in HEK293T cells measured after 16 hrs by steady-glo luciferase reporter gene assay; format: cell-based
[2] = Effect on angiogenic activity in 24 hrs post-fertilized fil1/EGFP transgenic zebrafish embryo assessed as subintestinal vessel area at 100 nM measured after 48 hrs by fluorescence microscopy (reference value: 100%); format: toxicity, Danio rerio; conditions: 0.1 µM
[3] = Hydrolytic stability of compound in DMSO-d6/D2O measured after 7 days by 1H-NMR analysis; format: physicochemical; conditions: 168 h; time 7 day
[4] = Cytotoxicity against human EA.hy 926 cells assessed as reduction in cell viability measured after 72 hrs by MTT assay; format: toxicity, cell-based
[5] = system: 518A2; assay: Cytotoxicity against human 518A2 cells assessed as reduction in cell viability measured after 72 hrs by MTT assay; format: functional, cell-based; conditions: 518A2, 72 h
[6] = system: HCT-116; assay: Cytotoxicity against human HCT-116 cells assessed as reduction in cell viability measured after 72 hrs by MTT assay; format: functional, cell-based; conditions: HCT-116, 72 h
[7] = system: HCT-116; assay: Cytotoxicity against p53-deficient human HCT-116 cells assessed as reduction in cell viability measured after 72 hrs by MTT assay; format: functional, cell-based; conditions: HCT-116, 72 h
[8] = system: HT-29; assay: Cytotoxicity against human HT-29 cells assessed as reduction in cell viability measured after 72 hrs by MTT assay; format: functional, cell-based; conditions: HT-29, 72 h
[9] = system: KB-V1; assay: Cytotoxicity against human multidrug-resistant KB-V1 cells assessed as reduction in cell viability measured after 72 hrs by MTT assay; format: functional, cell-based; conditions: KB-V1, 72 h
[10] = system: KB-V1; assay: Cytotoxicity against human multidrug-resistant KB-V1 cells assessed as reduction in cell viability measured after 72 hrs in presence of verapamil by MTT assay; format: functional, cell-based; conditions: KB-V1, 72 h
[11] = Cytotoxicity against human U-87 cells assessed as reduction in cell viability measured after 72 hrs by MTT assay; format: functional, cell-based, U-87MG ATCC; conditions: U-87 MG
[12] = system: HeLa; assay: Cytotoxicity against human HeLa cells assessed as reduction in cell viability measured after 72 hrs by MTT assay; format: functional, cell-based
[13] = Cytotoxicity against HDFa cells assessed as reduction in cell viability at 0.0005 to 100 uM measured after 72 hrs by MTT assay; format: toxicity, cell-based; conditions: human, dose 0.0005-100 µM
[14] = organism: Sus scrofa; assay: Inhibition of porcine brain tubulin polymerization at 5 uM measured at 10 mins interval for 100 mins by turbidimetric assay; format: tissue-based
[15] = biological target: T1, Tubulin (Homo sapiens) (UniProt P68371+Q9H4B7+P0DPH7+P68366+Q13509+Q71U36+P04350+Q3ZCM7+P07437+P68363+Q9BQE3+Q6PEY2+Q13885+Q9BVA1+Q9BUF5); assay: Induction of microtubule fragmentation in human 518A2 cells at 25 nM measured after 24 hrs by immunofluorescence assay; format: cell-based
[16] = biological target: T1, Tubulin (Homo sapiens); assay: Induction of microtubule fragmentation in human 518A2 cells assessed as appearance of area with dorsal stress fibre at 25 nM measured after 24 hrs by immunofluorescence assay; format: cell-based
[17] = biological target: T1, Tubulin (Homo sapiens); assay: Induction of microtubule fragmentation in human 518A2 cells assessed as appearance of area with transverse arcs at 25 nM measured after 24 hrs by immunofluorescence assay; format: cell-based
[18] = Drug uptake in cytoplasm of human 518A2 cells at 25 uM measured within 15 mins by confocal microscopy; format: ADME, subcellular; conditions: 518a2, 0.25 h
[19] = system: 518A2; assay: Cell cycle arrest in human […] cells assessed as increase in accumulation at sub-G1 phase at 25 nM measured after 6 to 24 hrs by propidium iodide staining based FACS analysis; format: functional; conditions: time 6-24 hrs
[20] = system: 518A2; assay: Cell cycle arrest in human […] cells assessed as increase in accumulation at G2/M phase at 25 nM measured after 6 to 24 hrs by propidium iodide staining based FACS analysis; format: functional; conditions: time 6-24 hrs
[21] = biological target: Caspase-3/Caspase-7 (Homo sapiens) (UniProt P42574+P55210); assay: Activation of caspase-3/7 activity in human 518A2 cells at 25 nM preincubated for 24 hrs followed by caspase-3/7 fluorogenic substrate addition and measured after 60 mins by fluorescence assay; format: cell-based; conditions: filed as activator, time 25.0 hrs
[22] = Effect on angiogenic activity in human EA.hy 926 cells assessed as reduction in vessel like 2D structure at 25 nM measured after 5 hrs by light microscopy; format: toxicity, cell-based; conditions: ea.hy 926, 5 h, 0.025 µM
[23] = Stability of compound in human 518A2 cell lysate at 100 uM measured after 24 hrs by UV-absorption spectra analysis; format: ADME, subcellular; conditions: 518a2, 24 h
[24] = Stability of compound in human 518A2 cell lysate measured after 72 hrs by RP-HPLC analysis; format: ADME, subcellular; conditions: 518a2, 72 h
[25] = system: MCF7; assay: Cytotoxicity against human MCF7 cells assessed as reduction in cell viability measured after 72 hrs by MTT assay; format: functional, cell-based; conditions: MCF7, 72 h

Transcriptional activator Myb, sequence (P10242 whole entry): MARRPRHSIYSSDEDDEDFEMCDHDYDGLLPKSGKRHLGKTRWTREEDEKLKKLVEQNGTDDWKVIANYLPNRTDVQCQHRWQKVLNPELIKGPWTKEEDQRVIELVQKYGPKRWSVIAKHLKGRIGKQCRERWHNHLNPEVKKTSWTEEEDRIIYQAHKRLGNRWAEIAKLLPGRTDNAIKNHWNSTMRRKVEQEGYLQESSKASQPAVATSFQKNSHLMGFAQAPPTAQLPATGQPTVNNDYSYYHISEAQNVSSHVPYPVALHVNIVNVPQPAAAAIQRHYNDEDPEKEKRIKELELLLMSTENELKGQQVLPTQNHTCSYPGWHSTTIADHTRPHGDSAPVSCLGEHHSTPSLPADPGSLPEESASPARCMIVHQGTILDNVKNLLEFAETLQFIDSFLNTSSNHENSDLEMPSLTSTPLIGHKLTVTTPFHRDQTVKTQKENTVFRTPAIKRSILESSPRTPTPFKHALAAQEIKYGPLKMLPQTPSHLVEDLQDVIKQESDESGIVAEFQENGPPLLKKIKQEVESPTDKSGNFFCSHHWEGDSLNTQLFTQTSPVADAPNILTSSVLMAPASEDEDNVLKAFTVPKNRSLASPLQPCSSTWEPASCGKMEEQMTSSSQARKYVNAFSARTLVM
Caspase-3/Caspase-7 (Homo sapiens), sequence (P42574 whole entry, looked up): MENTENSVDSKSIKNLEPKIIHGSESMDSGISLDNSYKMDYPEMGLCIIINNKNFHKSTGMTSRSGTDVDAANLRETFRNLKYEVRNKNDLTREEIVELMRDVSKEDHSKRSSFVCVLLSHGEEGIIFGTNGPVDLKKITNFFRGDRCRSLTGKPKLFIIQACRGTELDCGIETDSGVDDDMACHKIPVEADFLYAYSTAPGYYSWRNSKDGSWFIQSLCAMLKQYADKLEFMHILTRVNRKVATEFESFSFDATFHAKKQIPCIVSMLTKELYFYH
Caspase-3/Caspase-7 (Homo sapiens), sequence (P55210 whole entry, looked up): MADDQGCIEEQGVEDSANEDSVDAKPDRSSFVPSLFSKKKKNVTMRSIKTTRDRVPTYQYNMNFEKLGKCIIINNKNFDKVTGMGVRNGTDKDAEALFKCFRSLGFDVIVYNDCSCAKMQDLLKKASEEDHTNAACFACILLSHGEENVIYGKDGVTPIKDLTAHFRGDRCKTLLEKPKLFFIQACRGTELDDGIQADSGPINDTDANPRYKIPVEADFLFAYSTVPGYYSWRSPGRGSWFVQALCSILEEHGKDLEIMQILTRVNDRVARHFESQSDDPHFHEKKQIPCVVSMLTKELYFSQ

SMILES: N#CC1=C(N)Oc2c(ccc3ccccc23)C1c1ccc(Cl)c(F)c1 (stereo not given)
IC50 [1]: 16 nM

SMILES: CCCCCOc1c(OC)cc(C2C(C#N)=C(N)Oc3c2ccc2ccccc32)cc1OC (stereo not given)
IC50 [1]: 400 nM

SMILES: COc1ccc(C2C(C#N)=C(N)Oc3c2ccc2ccccc32)cc1 (stereo not given)
IC50 [1]: 3700 nM

SMILES: CCOc1c(Br)cc(C2C(C#N)=C(N)Oc3c2ccc2ccccc32)cc1OC (stereo not given)
IC50 [1]: 36.8 nM

SMILES: N#CC1=C(N)Oc2c(ccc3ccccc23)C1c1cc(F)c(F)c(F)c1 (stereo not given)
IC50 [1]: 70 nM

SMILES: COc1ccc(C2C(C#N)=C(N)Oc3c2ccc2ccccc32)cc1Br (stereo not given)
IC50 [1]: 420 nM

SMILES: N#CC1=C(N)Oc2c(ccc3ccccc23)C1c1cccc([N+](=O)[O-])c1 (stereo not given)
Stability [3]: Stable
IC50 [1]: 8.7 nM
IC50 at 72 h [4]: 29.5 nM
IC50 [5]: 10.8 nM
IC50 [6]: 7.57 nM
IC50 [7]: 28.2 nM
IC50 [8]: 32.1 nM
IC50 [9]: 23.7 nM
IC50 [10]: 76.1 nM
IC50 [11]: 67.7 nM
IC50 [12]: 36.1 nM
IC50 [25]: 182 nM

SMILES: COc1cc(C2C(C#N)=C(N)Oc3c2ccc2ccccc32)ccc1OCc1ccccc1 (stereo not given)
IC50 [1]: 1000 nM

SMILES: COc1cc(C2C(C#N)=C(N)Oc3c2ccc2ccccc32)cc(OC)c1OC (stereo not given)
Activity [2]: 81.4%
Stability [3]: Stable
IC50 [1]: 9.1 nM
IC50 at 72 h [4]: 19.9 nM
IC50 [5]: 28.8 nM
IC50 [6]: 22.2 nM
IC50 [7]: 27.6 nM
IC50 [8]: 324 nM
IC50 [9]: 26.4 nM
IC50 [10]: 8.8 nM
IC50 [11]: 5.2 nM
IC50 [12]: 11.3 nM
Activity [13]: Toxic
inhibition [14]: Active
Activity [15]: Active
Activity [16]: Active
Activity [17]: Active
Activity [19]: Active
Activity [20]: Active
Activity [21]: Active
Activity [22]: Toxic
IC50 [25]: 34.1 nM

SMILES: COc1ccc(C2C(C#N)=C(N)Oc3c2ccc2ccccc32)cc1[N+](=O)[O-] (stereo not given)
IC50 [1]: 110 nM

Further molecules by falling IC50 [1], results first:

IC50 [1]: 390 nM
SMILES: N#CC1=C(N)Oc2c(ccc3ccccc23)C1c1ccc(C#N)cc1 (stereo not given)

IC50 [1]: 210 nM
SMILES: CSc1ccc(C2C(C#N)=C(N)Oc3c2ccc2ccccc32)cc1 (stereo not given)

IC50 [1]: 40 nM
SMILES: COc1ccc(C2C(C#N)=C(N)Oc3c2ccc2ccccc32)cc1OC (stereo not given)

Stability [3]: Stable
IC50 [1]: 11 nM
Activity [15]: Active
Activity [16]: Active
Activity [17]: Active
Drug uptake [18]: Active
Activity [21]: Active
Stability [23]: Stable
Stability [24]: Stable
SMILES: C#CCOc1c(OC)cc(C2C(C#N)=C(N)Oc3c2ccc2ccccc32)cc1OC (stereo not given)
Activity [2]: 34.5%
IC50 at 72 h [4]: 17.1 nM
IC50 [5]: 20.6 nM
IC50 [6]: 75.2 nM
IC50 [7]: 19.9 nM
IC50 [8]: 36.9 nM
IC50 [9]: 60.6 nM
IC50 [10]: 10.6 nM
IC50 [11]: 5.2 nM
IC50 [12]: 24 nM
Activity [13]: Toxic
inhibition [14]: Active
Activity [19]: Active
Activity [20]: Active
Activity [22]: Toxic
IC50 [25]: 2.6 nM
